Where a chain is given by its changes, count along the chain named. Read-outs that look alike come from different tables or passages of the source.
Key:
[1] = molecular target: T1, GLA[R301G] (Homo sapiens, UniProt P06280, R301G); type: cell-based; conditions: 20 μM DGJ and 40 μM Ambroxol; untreated = 1.0; FIG. 5B
T1 sequence (P06280 32-429 R301G): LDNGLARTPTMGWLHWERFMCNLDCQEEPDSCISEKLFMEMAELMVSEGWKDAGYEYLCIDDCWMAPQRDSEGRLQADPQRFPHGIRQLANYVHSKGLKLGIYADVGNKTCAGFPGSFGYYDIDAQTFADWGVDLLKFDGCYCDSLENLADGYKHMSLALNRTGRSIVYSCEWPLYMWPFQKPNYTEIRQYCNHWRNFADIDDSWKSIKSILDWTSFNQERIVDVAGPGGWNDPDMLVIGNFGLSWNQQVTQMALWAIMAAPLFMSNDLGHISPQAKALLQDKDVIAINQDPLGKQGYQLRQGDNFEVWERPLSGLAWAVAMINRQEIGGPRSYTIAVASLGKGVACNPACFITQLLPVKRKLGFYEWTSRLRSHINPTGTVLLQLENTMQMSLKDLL

[2] = tested on: α-Gal A protein (GLA mutants); assay: Western blot of GLA protein levels in cells transfected with GLA mutants; type: cell-based; conditions: DGJ and Ambroxol compared to DGJ alone; FIG. 4
Protocol: Western blot analysis for the detection of α-Gal A protein was performed using a commercially available rabbit anti-α-Gal A polyclonal antibody ([H-104] Santa Cruz) Furthermore, a mouse GAPDH monoclonal antibody ([6C5] abcam) was used as an internal loading control.
The cells were then rinsed off from the wells, transferred to micro centrifuge tubes and spun at 14000×g for 10 minutes at 4° C. to pellet the cell debris. The supernatant was used for the analysis. After the determination of protein concentration, […] protein were mixed with a suitable volume of 5× Laemmli loading buffer, boiled for 5 minutes on a thermo shaker (Eppendorf), centrifuged at 14000×g for 10 minutes at 4° C. and loaded on a Criterion precast 4-15% Tris-HCl gel (Bio-Rad). Proteins were transferred electorophoretically to a Nitrocellulose (Amersham Hybond ECL) membrane (GE Healthcare). The membrane was blocked with 5% (w/v) non-fat dried skimmed milk in TBS-Tween 20 [10 mM Tris/HCl (pH 7.5) with 150 mM NaCl and 0.1% Tween 20] at room temperature for 1 hour, and then treated with a primary antibody against GAPDH diluted 1:10000 in a milk/blot solution [3% (w/v) non-fat dried skimmed milk in TBS-Tween 20] at 4° C. overnight. […] Following extensive washing with TBS-Tween 20, protein bands were visualized with an Odyssey Infrared Imager (Li-Cor) and quantified using the Odyssey software.

[3] = molecular target: T2, wild type GLA (Homo sapiens, UniProt P06280); type: cell-based
T2 sequence (P06280 32-429): T1 sequence (P06280 32-429 R301G) with G270R
Protocol: A bacterial clone containing the full length cDNA of α-galactosidase A (IRAUp969H0320D, aligned to accession no. NM_000169.2 (GeneBank)) was received form ImaGenes GmbH, Berlin, Germany. Amplification was performed with the primers 5′-[…] […]-3′ (SEQ ID NO:1) and 5′-[…]-3′ (SEQ ID NO:2) introducing unique restriction sites for BamHI and BstBI. The PCR was taken out using cloned Pfu DNA polymerase (Stratagene). The cDNA was subcloned into pGEM-T Easy vector (Promega). Prior to ligation, the cDNA insert was incubated with Taq polymerase (Qiagen) to add a poly (A) overhang at the 3′-end for TA-cloning. For expression, the α-Gal A cDNA was ligated into target vector pcDNA3.1/V5-His6 (Invitrogen).

[4] = molecular target: T3, GLA[A156V] (Homo sapiens, UniProt P06280, A156V); type: cell-based; conditions: untreated = 1.0, FIG. 5A
T3 sequence (P06280 32-429 A156V): T1 sequence (P06280 32-429 R301G) with A125V, G270R

[5] = molecular target: GLA mutants (alpha-galactosidase A) (Homo sapiens, UniProt P06280, G328A); conditions: GLA mutant G328A; Ambroxol in combination with DGJ
Chain of GLA mutants (alpha-galactosidase A) (Homo sapiens, UniProt P06280, G328A) (P06280 32-429 G328A): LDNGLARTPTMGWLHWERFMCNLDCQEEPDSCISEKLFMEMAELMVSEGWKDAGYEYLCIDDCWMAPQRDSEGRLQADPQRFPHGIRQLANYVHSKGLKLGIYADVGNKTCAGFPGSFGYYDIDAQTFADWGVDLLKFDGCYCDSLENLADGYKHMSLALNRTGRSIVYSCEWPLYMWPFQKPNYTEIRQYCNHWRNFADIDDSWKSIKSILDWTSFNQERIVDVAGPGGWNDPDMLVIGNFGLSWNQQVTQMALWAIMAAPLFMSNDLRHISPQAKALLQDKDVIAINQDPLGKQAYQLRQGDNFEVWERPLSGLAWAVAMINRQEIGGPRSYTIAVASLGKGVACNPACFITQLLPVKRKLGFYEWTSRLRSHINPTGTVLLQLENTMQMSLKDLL

[6] = tested on: GLA mutants (alpha-galactosidase A)
[7] = molecular target: GLA mutants (alpha-galactosidase A) (Homo sapiens, UniProt P06280, A156V); conditions: GLA mutant A156V; Ambroxol in combination with DGJ
Chain of GLA mutants (alpha-galactosidase A) (Homo sapiens, UniProt P06280, A156V) (P06280 32-429 A156V): as the sequence (P06280 32-429 G328A) above, with A125V, A297G counted along it

increase of GLA[R301G] activity [1]: 4.1 fold | enzyme activity of the GLA of the wild type ([3]; 40 μM Ambroxol alone, FIG. 1): increase in enzyme activity | inhibition of wild type GLA ([3]; Ambroxol dose-response, FIG. 2): not inhibiting | Ambroxol titer at or beyond which local maximum or saturation of wild type GLA activity ([3]; FIG. 2): > 60 µM | EC50 ([3]; read-out: EC50 of increase of wild type GLA activity): 21.2 µM | increase of GLA[A156V] activity ([4]; 8 μM DGJ and 40 μM Ambroxol): 3.8 fold | increase of GLA[A156V] activity ([4]; 20 μM DGJ and 40 μM Ambroxol): up to 8 fold | additive Ambroxol effect demonstrated [5]: * (*p≤0.1) | additive Ambroxol effect demonstrated [7]: **** (****p≤0.005)
Compound: Nc1c(Br)cc(Br)cc1CN[C@H]1CC[C@H](O)CC1 [Ambroxol, 2-amino-3,5-dibromo-N-[trans-4-hydroxycyclohexyl]benzylamine]
amount of Gal A protein in the cell (Western blot) [2]: higher amount of Gal A | effect on enzyme activity of the mutant forms of GLA ([6]; 40 μM Ambroxol alone, FIG. 1): no effect | activity of mutant alpha-galactosidase A, Ambroxol together with Galactose ([6]; compared to Galactose only, 100 mM galactose and 40 μM Ambroxol (FIG. 3B)): increased | significance of protein activity, Ambroxol and DGJ compared to DGJ alone ([6]; mutations E59K, A156V and G328A, FIG. 6): significant
